The test system of the data set is Canine chondrocytes (CnC). Kind of data set: IL1β induced chondrocyte cytotoxicity (Alamar Blue). In kind it is cell-based. Conditions: meloxicam 1 μg/mL, EET 0.4 μg/mL total, 48 h. As for the experimental part: Canine chondrocytes (CnC) were purchased from Cell Applications, Inc. […] Cells were kept at room temperature and monitored for detachment (∼2 min). Detached cells were added to 3× volume of full growth media and centrifuged to remove trypsin. Cells were reseeded at a concentration of 15,000 cells/cm^2 to reach 80% confluence in 3 days. Cells were expanded and frozen at the third passage in CGS containing 10% DMSO. For individual experiments, fresh cells were thawed and used at passage 5. Canine chondrocytes cells were plated in 96-well plates at a density of 15,000 cells/cm^2. Optimal cell number was predetermined by a cell seeding experiment outlined in [O'Brien et al. […] After 2 h, the IL1β treated media was aspirated and replaced with complete growth media supplemented with either vehicle (0.1% ethanol), regioisomers of EETs, or meloxicam for 48-h before assessing inflammatory cytokines and cytotoxicity. Cells were also pretreated with meloxicam or EET mixture 30 min prior to adding IL1β treatment for 2-h. After IL1β was removed, treatments were added to complete growth media for 48-h as described above. Treatment conditions are described in the Section “Results.” After the CnC cells were treated for 48-h under conditions described above, the media was removed and replaced with complete media containing 10% Alamar Blue (Life Technologies, catalog number DAL1025). The Alamar Blue assay relies on the metabolism of non-fluorescent resazurin to the highly fluorescent resorufin by healthy cells. Fluorescent intensity can be used to track cytotoxicity after xenobiotic treatments ([Larson et al., 1997]). After the addition of Alamar Blue, plates were protected from light and incubated at […] in a 5% CO2 atmosphere for 8 h. The conversion of resazurin was monitored by reading fluorescence at 570 excitations and 585 emission on a plate reader (Tecan […]) and cytotoxicity was calculated as the ratio of fluorescence from treated cells to non-treated controls.

As to `Cc1cnc(NC(=O)C2=C(O)c3ccccc3S(=O)(=O)N2C)s1` [Meloxicam], where the note is “10 ng/mL IL1β 2 h”, the “IL1β induced cytotoxicity, treatment added after IL1β” value is “did not result in significant reduction in cytotoxicity” and the “IL1β induced cytotoxicity, treatment added before IL1β” value is given as “significantly reduced”. Also, the “effect on healthy CnC cells (cytotoxicity, Alamar Blue)” value (absence of IL1β) is “no effect”.
